Results published in patent US20240239775A1, “FXR REGULATOR, PREPARATION METHOD THEREFOR, PHARMACEUTICAL COMPOSITION THEREOF AND USE THEREOF” (QINGDAO RUIJI MEDICAL TECHNOLOGY CO., LTD., priority 2021, published 2024).
pIC50: −log10 of the molar value.

Experiments:
[1] = target: T1, FXR (Homo sapiens, UniProt Q96RI1); assay: FXR antagonist screening by TR-FRET (LanthaScreen TR-FRET FXR co-activation assay kit); type: biochemical; details: Table 1.1, FXR antagonistic activity; TR-FRET with CDCA; geometric means of at least two independent runs
T1 construct: 5 μL of 20 nM FXR-LBD Complete Coregulator buffer G; purchased ThermoFisher PV4833
T1 sequence (Q96RI1 262-486 limits assumed): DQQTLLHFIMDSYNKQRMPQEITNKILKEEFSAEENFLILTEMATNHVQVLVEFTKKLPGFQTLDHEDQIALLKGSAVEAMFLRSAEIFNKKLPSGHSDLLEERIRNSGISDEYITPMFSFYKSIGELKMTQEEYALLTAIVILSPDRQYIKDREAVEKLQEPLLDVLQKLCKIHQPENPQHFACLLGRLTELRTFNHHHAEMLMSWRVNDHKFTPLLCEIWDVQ
Procedure, shortened: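 FXR-LBD (20 nM working solution) mixed with compound, CDCA (200 μM working solution) as agonist, Fluorescein-SRC2-2 and Tb-anti-GST antibody in Coregulator buffer G; 10 h at room temperature. Coactivator recruitment read by TR-FRET, triplicate wells.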

[2] = Cell proliferation inhibition (cytotoxicity) by MTT assay, HEK293A; type: cell-based; details: human, HEK293A cells, 48 hours after administration, average of three independent repeated experiments
Description: The human embryonic kidney cell line HEK293A was subcultured in a medium containing penicillin (final concentration: 100 U/mL), streptomycin (final concentration: 100 μg/mL) and 10% FBS, in a humidified atmosphere of 95% air and 5% carbon dioxide at a constant temperature of 37° C. When the cells were 90% confluent, the old culture medium was discarded and the cells were washed twice with 2 mL of PBS. After the PBS was discarded, 2 mL of 0.25% trypsin-0.25% EDTA mixed digestion solution was added. When it was observed under a microscope that the cells became round, 2 mL of complete culture medium was added quickly to stop the digestion. The cell solution was pipetted gently to collect cells. The cells were centrifuged at 800 rpm, 4° C. for 5 min, the supernatant was discarded, the cells were resuspended in complete culture medium and cultured in bottles, and the medium was changed every other day.
(§1) The cell proliferation inhibition ability of compounds was tested by MTT assay. HepG2 and HEK293 cells were inoculated in a 96-well plate at a density of 30%. After incubation for 18 h to allow the cells to adhere, the original culture medium was removed, a given concentration of the compound to be tested was added to each well, and an equal amount of DMSO was added to the control group. Three replicate wells were set up for each compound. 48 hours after administration, cell viability was tested by MTT assay. The blank group was the wells where no cells were added, and then its OD value was read at 490 nm with a microplate reader. Calculation formula for cell viability: cell viability (%)=(ODto be tested−ODblank)/(ODcontrol−ODblank)×100.

[3] = Cell proliferation inhibition (cytotoxicity) by MTT assay, HepG2; type: cell-based; details: human, HepG2 cells, 48 hours after administration, average of three independent repeated experiments
Description: The human liver cancer cell line HepG2 was subcultured in a DMEM medium containing penicillin (final concentration: 100 U/mL), streptomycin (final concentration: 100 μg/mL) and 10% FBS under the same conditions as those in the subculture of HEK293A.
as §1

[4] = test system: HepG2 cells; assay: Testing of TC/TG in HepG2 cells incubated with FFA (oleic acid and palmitate); type: cell-based, human; details: 24 h; for reduction of the increase in TG level of HepG2 cell induced by oleic acid and palmitate / reduction of the increase in TC level of HepG2 cell induced by oleic acid and palmitate: 20 μM compound, 0.5 mmol/L FFA; for reduction of the increase in TG level of HepG2 cell induced by oleic acid and palmitate: FIG. 1A; for reduction of the increase in TC level of HepG2 cell induced by oleic acid and palmitate: FIG. 1B
Description: Cell TC/TG was tested using Nanjing Jiancheng TG test kit and TC test kit. HepG2 cells were incubated with 0.5 mmol/L FFA (oleic acid and palmitate mixed at a ratio of 2:1) and a solvent or different concentrations (20 μM, 40 μM, 80 μM) of compounds for 24 h. The culture medium was discarded and the cells were washed once with 0.01 M PBS (pH 7.4). The cells were scraped off with a cell scraper. 2-5 mL of 0.01 M PBS (pH 7.4) was then added. The cell suspension was collected and then centrifuged at 1000×g, 4° C. for 10 min. According to the ratio of 10^6 cells/300-500 μL of homogenization medium, isopropyl alcohol was added for mechanical homogenization, such that the cells were thoroughly disrupted until there was no obvious cell precipitation. The cell solution was centrifuged at 10000×g, 4° C. for 10 min. The supernatant was taken and placed on ice for testing. 2.5 μL of distilled water, standard products or samples were well mixed with […] respectively. After incubation at 37° C. for 10 min, the absorbance value of each well was tested with a microplate reader at 510 nm. Calculation formula for TC/TG concentration: sample concentration (mmol/g protein)=(ODsample−ODblank)/(ODstandard−ODblank)×standard product concentration (mmol/L)/protein concentration (g protein/L).
Preparation of protein standard: a. 1.2 mL of standard protein solution was added to a tube of protein standard (30 mg BSA), and a 25 mg/mL standard protein solution was obtained after the protein standard was thoroughly dissolved. b. An appropriate amount of 25 mg/mL protein standard was diluted to the final concentration of 0.5 mg/mL. Preparation of BCA working solution: according to the number of samples, reagent A for the BCA working solution and reagent B for BCA working solution (v/v: 50:1) were well mixed to prepare an appropriate amount of BCA working solution. Determination of protein concentration: a. 0, 1, 2, 4, 8, 12, 16, and 20 μL of the protein standard were respectively added into the standard wells of the 96-well plate, and the diluted standard solution was then added to make up to 20 μL, which is equivalent to obtaining standard concentrations of 0, 0.025, 0.05, 0.1, 0.2, 0.3, 0.4, and 0.5 mg/mL, respectively. b. An appropriate volume of sample was added to the sample wells of the 96-well plate. If the sample is less than 20 μL, the diluted standard solution should be added to make up to 20 μL. c. […] was added to each well and the well plate was set still at 37° C. for 20-30 min. d. The absorbance at A562 nm was determined with a microplate reader. e. The protein concentrations of the samples were calculated according to the standard curves and the sample volumes used.

Row | SMILES | pIC50 [1] | CC50 at 48 h [2] | CC50 at 48 h [3] | melting point | reduction of the increase in TG level of HepG2 cell induced by oleic acid and palmitate [4] | reduction of the increase in TC level of HepG2 cell induced by oleic acid and palmitate [4] | inhibitory effect on TC, dose dependence ([4]; HepG2, 20 μM, 40 μM, 80 μM) | inhibitory effect on TG, dose dependence ([4]; HepG2, 20 μM, 40 μM, 80 μM)
1 | Cc1c(C(=O)O)oc2ccc(S(=O)(=O)N(CCc3ccccc3)c3ccc(Cc4ccccc4)cc3)cc12 [Example F27-S11, 3-methyl-5-(N-(4-benzylphenyl)-N-phenethylsulfamoyl)benzofuran-2-carboxylic acid] | 5.00 to 7.00 | > 160 µM | > 160 µM | 301 to 302 °C | – | – | – | –
2 | Cc1c(C(=O)O)oc2ccc(S(=O)(=O)N(CCc3ccccc3)Cc3ccccc3N3CCN(C(=O)c4ccccc4)CC3)cc12 [Example F27-S105, 3-methyl-5-(N-(2-(4-benzoylpiperazin-1-yl)benzyl)-N-phenethylsulfamoyl)benzofuran-2-carboxylic acid] | 5.00 to 7.00 | > 160 µM | > 160 µM | 163 to 164 °C | – | – | – | –
3 | CC(=O)C1=CC[C@H]2[C@@H]3CC=C4C[C@@H](O)CC[C@]4(C)[C@H]3CC[C@]12C [Centatin, 1-((3S, 8R, 9S, 10R, 135, 14S)-3-hydroxy-10,13-dimethyl-2,3,4,7,8,9,10,11,12,13,14,15-dodecahydro-1H-cyclopenta[a]phenanthren-17-yl)ethan-1-one] | – | – | – | – | significantly reduce | significantly reduce | – | –
4 | Cc1ccc(C)c(OCCCC(C)(C)C(=O)NCC(=O)c2ccc(O)cc2)c1 [SIPI-7623, 5-(2,5-dimethylphenoxy)-N-(2-(4-hydroxyphenyl)-2-oxoethyl)-2,2-dimethylpentanamide] | – | – | – | – | significantly reduce | significantly reduce | – | –
5 | Cc1c(C(=O)O)oc2ccc(S(=O)(=O)N(CCc3ccccc3)c3ccccc3N3CCN(C(=O)c4ccccc4)CC3)cc12 [Example F27-S96] | 5.00 to 7.00 | > 160 µM | > 160 µM | 128 to 129 °C | significantly reduce | significantly reduce | dose-dependent to some extent | dose-dependent to some extent
6 | Cc1c(C(=O)O)oc2ccc(S(=O)(=O)N(CCc3ccccc3)Cc3ccccc3N3CCN(C(=O)N(C)C)CC3)cc12 [Example F27-S101, 3-methyl-5-(N-(2-(4-(dimethylcarbamoyl)piperazin-1-yl)benzyl)-N-phenethylsulfamoyl)benzofuran-2-carboxylic acid] | 5.00 to 7.00 | > 160 µM | > 160 µM | 118 to 119 °C | – | – | – | –
7 | C/C=C1\C(=O)C[C@H]2[C@@H]3CCC4=CC(=O)CC[C@]4(C)[C@H]3CC[C@]12C [Z-GS] | – | – | – | – | significantly reduce | significantly reduce | – | –
8 | Cc1c(C(=O)O)oc2ccc(S(=O)(=O)N(CCc3ccccc3)c3ccc(Oc4ccccc4)cc3)cc12 [Example F27-S12, 3-methyl-5-(N-(4-phenoxyphenyl)-N-phenethylsulfamoyl)benzofuran-2-carboxylic acid] | 5.00 to 7.00 | > 160 µM | > 160 µM | – | – | – | – | –
